Measured values from PubChem BioAssay (NCI).
Several values for one entry are separate records, joined by “and”; a condition that tells them apart may be missing. Equal entries are not always repeated.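 Test compounds were applied to cells in 96-well plates for 48 hours at 5 doses. Here, GI50 denotes the concentration required for 50% inhibition of growth. The concentration for full growth arrest is given as TGI.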

What was measured:
Experiment in all cases: inhibition of tumour cell growth, NCI panel, 48 h
[1] = tested on: ACHN renal
[2] = tested on: HCT-116 colon
[3] = tested on: HT29 colon
[4] = tested on: K-562 leukemia
[5] = tested on: MALME-3M melanoma
[6] = tested on: NCI-H522 lung
[7] = tested on: SK-MEL-2 melanoma
[8] = tested on: SK-MEL-28 melanoma
[9] = tested on: SK-OV-3 ovarian
[10] = tested on: SW-620 colon

| SMILES | GI50 [1] | TGI [1] | GI50 [2] | TGI [2] | GI50 [3] | TGI [3] | GI50 [4] | TGI [4] | GI50 [5] | TGI [5] | GI50 [6] | TGI [6] | GI50 [7] | TGI [7] | GI50 [8] | TGI [8] | GI50 [9] [µM] | TGI [9] | GI50 [10] | TGI [10] |
| --- | --- | --- | --- | --- | --- | --- | --- | --- | --- | --- | --- | --- | --- | --- | --- | --- | --- | --- | --- | --- |
| CN(C)Cc1c[nH]c2c(NCCN)c3c(c(NCCN)c12)C(=O)c1ccccc1C3=O | 2120 nM | 9.04 µM | 625 nM | 5.29 µM | 3650 nM | 26.5 µM | 516 nM | > 100 µM | 3990 nM | 18.7 µM | 1130 nM | 3.26 µM | 2410 nM | 8.27 µM | 8800 nM | 23.3 µM | 8.67 | 24.1 µM | 2350 nM | 7.87 µM |
| C=CCC1[C@@H](C(C)(C)C(C(C)=O)C(=O)C(=O)OC)OC(C(C)(C)C)N1C(=O)OC (stereo not given in full) | – | > 100 µM | – | > 100 µM | – | > 100 µM | – | > 100 µM | – | > 100 µM | – | > 100 µM | – | > 100 µM | – | > 100 µM | – | > 100 µM | – | – |
| CC(CC(=O)Nc1ccc(NC(=O)CC(C)N=NC(N)=S)cc1)N=NC(N)=S (stereo not given) | – | > 100 µM | – | > 100 µM | – | > 100 µM | – | > 100 µM | – | > 100 µM | – | – | – | > 100 µM | – | > 100 µM | – | – | – | – |
| C#CCC(N)(CO)C(=O)O (stereo not given) | – | > 100 µM | – | > 100 µM | – | > 100 µM | – | > 100 µM | – | > 100 µM | – | > 100 µM | – | > 100 µM | – | > 100 µM | – | > 100 µM | – | > 100 µM |
| Cl[Si]1(Cl)Oc2ccccc2O[Si](Cl)(Cl)Oc2ccccc2O1 | – | > 100 µM | – | > 100 µM | – | 70.9 µM | – | 40.9 µM | – | > 100 µM | – | 5.4 µM | – | 73.8 µM | – | > 100 µM | – | > 100 µM | – | 54.5 µM |
| Cc1cc2c(Br)cc(Br)c(O)c2nc1C(=O)c1ccccc1 | – | > 100 µM | – | > 72.8 µM | – | > 79.1 µM | – | 52.1 µM | – | > 76.9 µM | – | > 100 µM | – | 97.2 µM | – | > 100 µM | – | – | – | > 100 µM |
| CC1(Cc2ccccc2)NC(=S)NC1=O (stereo not given) | – | > 100 µM | – | – | – | > 100 µM | – | – | – | > 100 µM | – | > 100 µM | – | > 100 µM | – | > 100 µM | – | – | – | > 100 µM |
| O=C1C=C(O)c2[nH]c(=O)ccc2C1=O | – | > 100 µM | – | > 100 µM | – | > 100 µM | – | > 100 µM | – | > 100 µM | – | > 100 µM | – | – | – | > 100 µM | – | > 100 µM | – | > 100 µM |
| c1ccc2nc3c(cc4ccccn43)nc2c1 | 60200 nM | > 100 µM | 23500 nM | > 100 µM | > 100000 nM | > 100 µM | > 100000 nM | > 100 µM | – | – | 21500 nM | > 100 µM | 43800 nM | > 100 µM | > 100000 nM | > 100 µM | 97.4 | > 100 µM | > 100000 nM | > 100 µM |
| CC/C(=N\NS(=O)(=O)c1ccccc1)c1ccccc1 | – | > 100 µM | – | > 100 µM | – | > 100 µM | – | > 100 µM | – | > 100 µM | – | – | – | > 100 µM | – | > 100 µM | – | > 100 µM | – | > 100 µM |
| O=c1c(Cl)c(Cl)cnn1CCc1ccncc1 | – | 33.4 µM | – | 30.7 µM | – | 31.6 µM | – | > 100 µM | – | 39.6 µM | – | – | – | 39.7 µM | – | 30.7 µM | – | – | – | 41.2 µM |
| COc1ccc(/C=C2/CCc3cc4ccc(OC)cc4[o+]c32)c(O)c1 | 4150 nM | 15.8 µM | – | – | 2120 nM | 4.67 µM | 11400 nM | 93.8 µM | 3080 nM | 11.7 µM | 12700 nM | 30.5 µM | 11800 nM | 25.3 µM | 2300 nM | 5.62 µM | 12.3 | 25.3 µM | 2230 nM | 5.09 µM |
| CC1(C)CC[C@H](C2=CC(=O)c3c(O)ccc(O)c3C2=O)O1 | 1640 nM and 1270 nM and 252 nM | 3.45 µM and 2.55 µM and 0.69 µM | 1080 nM and 344 nM and 205 nM | 2.57 µM and 1.3 µM and 0.579 µM | 3170 nM and 1720 nM and 773 nM | 7.29 µM and 3.63 µM and 1.83 µM | – | – | 1150 nM and 1260 nM and 201 nM | 2.76 µM and 2.53 µM and 0.471 µM | 550 nM and 94.2 nM | 1.23 µM and 0.248 µM | 4340 nM and 1300 nM and 682 nM | 8.47 µM and 2.67 µM and 1.56 µM | 2170 nM and 979 nM and 571 nM | 5.43 µM and 2.15 µM and 1.16 µM | 4.81 | 18.8 µM and 13.7 µM | 660 nM and 374 nM and 99.6 nM | 1.67 µM and 1.64 µM and 0.229 µM |
| Cn1cc(-c2csc(-c3cn(C)c4ccccc34)n2)c2cnccc21 | 1800 nM | 3.19 µM | 925 nM | 2.19 µM | 1980 nM | 3.71 µM | – | – | 2010 nM | 3.61 µM | 2000 nM | 3.84 µM | 2000 nM | 3.7 µM | 1770 nM | 3.21 µM | 2.52 | 6.33 µM | 1850 nM | 3.63 µM |
| OC(CN1CC1)C(O)CN1CC1 (stereo not given) | > 50 µg/mL | > 50 µg/mL | > 50 µg/mL | > 50 µg/mL | > 50 µg/mL | > 50 µg/mL | > 50 µg/mL | > 50 µg/mL | > 50 µg/mL | > 50 µg/mL | > 50 µg/mL | > 50 µg/mL | > 50 µg/mL | > 50 µg/mL | > 50 µg/mL | > 50 µg/mL | – | – | > 50 µg/mL | > 50 µg/mL |
| COC(=O)/C(C#N)=C1\CCC(C(=O)OC)N1C (stereo not given) | – | – | – | > 100 µM | – | – | – | > 100 µM | – | – | – | > 100 µM | – | > 100 µM | – | > 100 µM | – | > 100 µM | – | – |
| CC(C)c1ccccc1NC(=O)/C(Cl)=C1/Sc2ccccc2NC1=O | – | > 100 µM | – | > 100 µM | – | – | – | > 100 µM | – | 80.7 µM | – | 51.8 µM | – | 37.8 µM | – | > 100 µM | – | 66.6 µM | – | > 100 µM |
| COc1ccccc1/C=C/C(=O)/C=C/c1ccccc1O | 1360 nM | 2.66 µM | 174 nM | 0.379 µM | 853 nM | 2.75 µM | 441 nM | – | 1820 nM | 5.98 µM | 950 nM | 2.21 µM | – | – | 1560 nM | 3.72 µM | 2.05 | 5.6 µM | 392 nM | 1.47 µM |
